In assay [1] the test system is ER at the AP1 site of the human collagenase promoter, ERC1 cells. As to the kind of experiment: Collagenase promoter-CAT reporters (Δcoll73, Δcoll60) in ERC1 cells. Format: cell-based. The protocol:
FIGS. 1A and 1B show estrogen stimulation mediated by an AP1 site in ERC1 cells (FIG. 1A) and F9 cells (FIG. 1B). Typical results of CAT assays, normalized for transfection efficiency, following a single transfection are shown opposite. Each point is the mean value of triplicate assays, with standard errors. CAT activities from cells maintained in the absence of hormone are shown as white bars, those in the presence of a saturating concentration (100 nM) of estradiol as black bars.
CAT assays were carried out as described in Webb et al., except that the cells were harvested one to two days after transfection instead of three. CAT activities were defined as the increase in cpm per hour at room temperature (corrected for background) per 100 μl of cell extract, normalized to production of 100 standard units of βHCG, from a co-transfected reporter gene, actin-HCG. Luciferase assays were performed as described by Brasier et al. Methods Enzymol 216:386-97 (1992)) on similar extracts that were used for CAT assays. Light units were defined as the luciferase activity per 100 μl of cell extract per 100 standard units of βHCG. Relative luciferase activities were calculated with respect to the results that were obtained in the absence of ER and hormone, which was set at 1 unit. For the data presented in Table I triplicate points were determined. Standard deviations were less than 20%. […]

Assay [2] concerns human ER at the AP-1 site of the collagenase promoter (coll73). As to the kind of experiment: Coll73-LUC luciferase reporter (collagenase promoter with AP-1 site) in cells transfected with human ER expression vector HEO. It is filed as cell-based. The settings on record: relative to no ER. The protocol: All reporter genes described below have been modified by digestion with EcoR I and Ndel to remove a AP-I site in the backbone of pUG. […] Coll73-LUC was constructed by cloning a BamHI/Pvull fragment, that spanned the luciferase transcription unit, from pMG3 into coll73, which had been digested with BamHI and SmaI to remove the CAT transcription unit.
Cells were maintained and transfected as previously described in Webb et al., supra. […] F9 cells were seeded at 30% confluence upon 1.5 cm dishes and transfected overnight by calcium phosphate coprecipitation with 5 μg reporter gene, 1 μg actin β-HCG, and 1 μg of HEO, 300 ng each of c-jun and c-fos expression vectors. The cells were glycerol shocked and refed in growth medium containing hormone or ethanolic vehicle.
CAT assays were carried out as described in Webb et al., except that the cells were harvested one to two days after transfection instead of three. CAT activities were defined as the increase in cpm per hour at room temperature (corrected for background) per 100 μl of cell extract, normalized to production of 100 standard units of βHCG, from a co-transfected reporter gene, actin-HCG. […] Light units were defined as the luciferase activity per 100 μl of cell extract per 100 standard units of βHCG. Relative luciferase activities were calculated with respect to the results that were obtained in the absence of ER and hormone, which was set at 1 unit. For the data presented in Table I triplicate points were determined.
In each case, the cells were transfected with different amounts of the human ER expression vector HEO to determine the optimal response.
(In a reporter assay the amount or activity of a reporter protein is the signal.)

`C[C@]12CC[C@@H]3c4ccc(O)cc4CC[C@H]3[C@@H]1CC[C@@H]2O` [estradiol, 17β-estradiol]: the “estrogen response of Δcoll60 (AP1 site removed)” value in assay [1] was “no estrogen response”. Also, the “stimulation of Δcoll73 (CAT)” value in assay [1] (100 nM estradiol, FIG. 1A) is “ten fold”. Moreover, the “Coll73 Luciferase Activity” value in assay [2] (CEF (fibroblast), no hormone, saturating hormone) is reported as 2.5; in assay [2] (CHO (ovary), no hormone, saturating hormone), 3.3; in assay [2] (CV-1 (kidney), no hormone, saturating hormone) it was 2.2; in assay [2] (F9 (teratocarcinoma), no hormone, unliganded ER gave 3.2), 1.4; in assay [2] (HELA (cervix), no hormone = 1, ICI 1 μM, tamoxifen 5 μM, estradiol 100 nM), 3.4; in assay [2] (HEP G2 (liver), no hormone, saturating hormone) it was 4.3. Moreover, the “Coll73 Luciferase Activity” value in assay [2] (MDA453 (breast), no hormone, saturating hormone) is listed as 8.4; in assay [2] (NIH 3T3 (fibroblast), no hormone, saturating hormone) it was 3.3; in assay [2] (SHM (myometrium), no hormone, saturating hormone) it was 2.0; in assay [2] (SY5Y (neuroblastoma), no hormone, saturating hormone), 2.1.

(Values after patent US6884577B2, “Methods for screening compounds for estrogenic activity” (The Regents of the University of California, priority 1993, dated 2005).)
